According to PubChem BioAssay AID256 (DTP/NCI, 2004):
Where “and” joins values, the source holds several entries; their conditions need not be identical. Equal values may be shown once. Inconclusive results and toxic doses are left out.

Test system: CD2F1 mice, L1210 leukemia ip, survival T/C
Assay: NCI In Vivo Anticancer Drug Screen. Data for tumor model L1210 Leukemia (intraperitoneal) in CD2F1 (CDF1) mice
Conditions: higher = longer survival
Summary of the method: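 Tumor-bearing mice (transplanted tumor) were split into treated and vehicle control groups, and the measured endpoint of each treated group was divided by that of its vehicle controls.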

[1] = endpoint: mean survival time, dose: 100.0 mg/kg/injection, schedule: Q04DX003 (ip), vehicle: saline with Tween-80
[2] = endpoint: mean survival time, dose: 200.0 mg/kg/injection, schedule: Q04DX003 (ip), vehicle: saline with Tween-80
[3] = endpoint: mean survival time, dose: 400.0 mg/kg/injection, schedule: Q04DX003 (ip), vehicle: saline with Tween-80
[4] = endpoint: mean survival time, dose: 100.0 mg/kg/injection, schedule: Q01DX009 (ip), vehicle: saline
[5] = endpoint: mean survival time, dose: 200.0 mg/kg/injection, schedule: Q01DX009 (ip), vehicle: saline
[6] = endpoint: mean survival time, dose: 400.0 mg/kg/injection, schedule: Q01DX009 (ip), vehicle: saline
[7] = endpoint: mean survival time, dose: 200.0 mg/kg/injection, schedule: Q01DX009 (ip), vehicle: saline with Tween-80
[8] = endpoint: mean survival time, dose: 400.0 mg/kg/injection, schedule: Q01DX009 (ip), vehicle: saline with Tween-80
[9] = endpoint: mean survival time, dose: 100.0 mg/kg/injection, schedule: Q01DX001 (ip), vehicle: saline with Tween-80
[10] = endpoint: mean survival time, dose: 200.0 mg/kg/injection, schedule: Q01DX001 (ip), vehicle: saline with Tween-80
[11] = endpoint: mean survival time, dose: 400.0 mg/kg/injection, schedule: Q01DX001 (ip), vehicle: saline with Tween-80
[12] = endpoint: mean survival time, dose: 100.0 mg/kg/injection, schedule: Q01DX009 (ip), vehicle: saline with Tween-80

## CCCCCCCCCCCCCCCCSSCCCCCCCCCCCCCCCC
[1]
  T/C: 88 % of control
[2]
  T/C: 88 % of control
[3]
  T/C: 92 % of control

## COC(=O)C(NC=O)C(=O)OC
[4]
  T/C: 105 % of control
endpoint: mean survival time, dose: 100.0 mg/kg/injection, schedule: Q04DX003 (ip), vehicle: saline
  T/C: 93 % of control
[5]
  T/C: 107 % of control
endpoint: mean survival time, dose: 200.0 mg/kg/injection, schedule: Q04DX003 (ip), vehicle: saline
  T/C: 101 % of control
[6]
  T/C: 117 % of control
endpoint: mean survival time, dose: 400.0 mg/kg/injection, schedule: Q04DX003 (ip), vehicle: saline
  T/C: 95 % of control

## CN(Cc1ccc(Cl)cc1)N=Nc1ccc(C(=O)O)cc1
endpoint: mean survival time, dose: 7.9 mg/kg/injection, schedule: Q01DX009 (ip), vehicle: other
  T/C: 94 % of control
endpoint: mean survival time, dose: 15.7 mg/kg/injection, schedule: Q01DX009 (ip), vehicle: other
  T/C: 94 % of control
endpoint: mean survival time, dose: 31.3 mg/kg/injection, schedule: Q01DX009 (ip), vehicle: other
  T/C: 105 % of control
endpoint: mean survival time, dose: 62.5 mg/kg/injection, schedule: Q01DX009 (ip), vehicle: other
  T/C: 90 % of control
endpoint: mean survival time, dose: 100.0 mg/kg/injection, schedule: Q01DX009 (ip), vehicle: other
  T/C: 101 % of control
endpoint: mean survival time, dose: 125.0 mg/kg/injection, schedule: Q01DX009 (ip), vehicle: other
  T/C: 97 % of control
endpoint: mean survival time, dose: 200.0 mg/kg/injection, schedule: Q01DX009 (ip), vehicle: other
  T/C: 93 % of control

## CCCCCCCCCCCCCCCCOc1ccc(C(C)=O)cc1
[7]
  T/C: 89 % of control
[8]
  T/C: 96 % of control

## CCOC(=O)C(=O)Nc1ccc(Cl)cc1
[9]
  T/C: 94 % of control
[10]
  T/C: 97 % of control
[11]
  T/C: 95 % of control

## Cc1ccc(NC(=O)Nc2cccc(NC(=O)COc3ccc(Cl)cc3C(=O)O)c2)cc1S(=O)(=O)F
[9]
  T/C: 88 % of control
[10]
  T/C: 86 % of control
[11]
  T/C: 89 % of control

## O=[N+]([O-])c1ccccc1CSc1ncnc2nc[nH]c12
endpoint: mean survival time, dose: 50.0 mg/kg/injection, schedule: Q01DX009 (ip), vehicle: saline with Tween-80
  T/C: 110 % of control
endpoint: mean survival time, dose: 50.0 mg/kg/injection, schedule: Q04DX003 (ip), vehicle: saline with Tween-80
  T/C: 108 % of control
[12]
  T/C: 121 % of control
[1]
  T/C: 110 % of control
endpoint: mean survival time, dose: 132.0 mg/kg/injection, schedule: Q04DX003 (ip), vehicle: saline with Tween-80
  T/C: 108 % of control
[7]
  T/C: 158 % of control

## CCCCCCCCCCCCCCCCOc1ccc(NS(=O)(=O)c2ccc(NC(C)=O)cc2)cc1
[9]
  T/C: 96 % of control
endpoint: mean survival time, dose: 100.0 mg/kg/injection, schedule: Q01DX009 (ip), vehicle: Klucel (hydroxypropylcellulose) (HPC)
  T/C: 109 % of control
[10]
  T/C: 91 % of control
endpoint: mean survival time, dose: 200.0 mg/kg/injection, schedule: Q01DX009 (ip), vehicle: Klucel (hydroxypropylcellulose) (HPC)
  T/C: 103 % of control
[11]
  T/C: 93 % of control
endpoint: mean survival time, dose: 400.0 mg/kg/injection, schedule: Q01DX009 (ip), vehicle: Klucel (hydroxypropylcellulose) (HPC)
  T/C: 98 % of control

## O=S(=O)(Oc1ccccc1)c1ccc(Cl)cc1
[12]
  T/C: 95 % of control
[1]
  T/C: 98 % of control
[7]
  T/C: 98 % of control
[2]
  T/C: 96 % of control
[8]
  T/C: 98 % of control
[3]
  T/C: 102 % of control

## CC(C)(C)C(Br)C(=O)O (configuration not stated)
endpoint: mean survival time, dose: 75.0 mg/kg/injection, schedule: Q01DX001 (ip), vehicle: saline with Tween-80
  T/C: 97 % of control
endpoint: mean survival time, dose: 150.0 mg/kg/injection, schedule: Q01DX001 (ip), vehicle: saline with Tween-80
  T/C: 97 % of control

## O=C(O)C1CCC(C(=O)O)CC1.[NH-]C1CCCCC1[NH-].[Pt+2] (configuration not stated)
endpoint: median survival time, dose: 3.12 mg/kg/injection, schedule: Q04DX003 (ip), vehicle: saline
  T/C: 123 % of control and 112 % of control
endpoint: median survival time, dose: 6.25 mg/kg/injection, schedule: Q04DX003 (ip), vehicle: saline
  T/C: 122 % of control
endpoint: median survival time, dose: 25.0 mg/kg/injection, schedule: Q04DX003 (ip), vehicle: saline
  T/C: 168 % of control
endpoint: median survival time, dose: 50.0 mg/kg/injection, schedule: Q04DX003 (ip), vehicle: saline
  T/C: 207 % of control and 237 % of control
endpoint: median survival time, dose: 100.0 mg/kg/injection, schedule: Q04DX003 (ip), vehicle: saline
  T/C: 287 % of control and 365 % of control
endpoint: median survival time, dose: 200.0 mg/kg/injection, schedule: Q04DX003 (ip), vehicle: saline
  T/C: 87 % of control and 89 % of control

## Nc1c(Cl)cccc1Cl (tested in a mixture with another compound)
[9]
  T/C: 89 % of control
[12]
  T/C: 99 % of control
[10]
  T/C: 91 % of control
[7]
  T/C: 98 % of control
[11]
  T/C: 91 % of control
[8]
  T/C: 107 % of control

## OCC1C=CCC=C1
[4]
  T/C: 95 % of control
[5]
  T/C: 107 % of control
[6]
  T/C: 101 % of control

## Cc1nn(-c2ccc(Cl)cc2)c(C)c1N=O
[9]
  T/C: 104 % of control

## O=[N+]([O-])/C=C\c1ccc2c(c1)OCO2
[1]
  T/C: 101 % of control
[2]
  T/C: 93 % of control
[3]
  T/C: 90 % of control

## O=S(c1ccccc1)C1OC12CCCCC2 (configuration not stated)
[1]
  T/C: 97 % of control
[2]
  T/C: 98 % of control
[3]
  T/C: 97 % of control

## O=S(=O)(c1cccc(N=C=S)c1)c1cccc(N=C=S)c1
endpoint: median survival time, dose: 6.25 mg/kg/injection, schedule: Q01DX009 (ip), vehicle: Klucel (hydroxypropylcellulose) (HPC)
  T/C: 101 % of control
endpoint: median survival time, dose: 12.5 mg/kg/injection, schedule: Q01DX009 (ip), vehicle: Klucel (hydroxypropylcellulose) (HPC)
  T/C: 109 % of control
endpoint: median survival time, dose: 25.0 mg/kg/injection, schedule: Q01DX009 (ip), vehicle: Klucel (hydroxypropylcellulose) (HPC)
  T/C: 118 % of control

## c1ccc(NCc2nc3ccccc3[nH]2)cc1
endpoint: mean survival time, dose: 12.5 mg/kg/injection, schedule: Q01DX005 (ip), vehicle: water
  T/C: 101 % of control
endpoint: mean survival time, dose: 25.0 mg/kg/injection, schedule: Q01DX005 (ip), vehicle: water
  T/C: 102 % of control

## CC1(C)N=C(N)N=C(N)N1c1ccc(C(=O)Nc2ccc(S(=O)(=O)F)cc2)cc1
endpoint: mean survival time, dose: 100.0 mg/kg/injection, schedule: Q01DX001 (ip), vehicle: saline
  T/C: 94 % of control
endpoint: mean survival time, dose: 200.0 mg/kg/injection, schedule: Q01DX001 (ip), vehicle: saline
  T/C: 97 % of control
endpoint: mean survival time, dose: 400.0 mg/kg/injection, schedule: Q01DX001 (ip), vehicle: saline
  T/C: 103 % of control

## NC(Cc1c[nH]c2ccc(N(CCCl)CCCl)cc12)C(=O)O (configuration not stated)
endpoint: mean survival time, dose: 0.5 mg/kg/injection, schedule: Q01DX010 (ip), vehicle: saline
  T/C: 150 % of control
endpoint: mean survival time, dose: 1.0 mg/kg/injection, schedule: Q01DX010 (ip), vehicle: saline
  T/C: 160 % of control
endpoint: mean survival time, dose: 2.0 mg/kg/injection, schedule: Q01DX010 (ip), vehicle: saline
  T/C: 208 % of control

## BrC1=C(c2ccccc2)C2CCCCC2C1(Br)c1ccccc1 (configuration not stated)
endpoint: mean survival time, dose: 100.0 mg/kg/injection, schedule: Q01DX001 (ip), vehicle: Klucel (hydroxypropylcellulose) (HPC)
  T/C: 98 % of control
endpoint: mean survival time, dose: 200.0 mg/kg/injection, schedule: Q01DX001 (ip), vehicle: Klucel (hydroxypropylcellulose) (HPC)
  T/C: 102 % of control
endpoint: mean survival time, dose: 400.0 mg/kg/injection, schedule: Q01DX001 (ip), vehicle: Klucel (hydroxypropylcellulose) (HPC)
  T/C: 102 % of control

## CN(C)N=Nc1cccc(C(N)=O)c1
endpoint: mean survival time, dose: 5.0 mg/kg/injection, schedule: Q01DX009 (ip), vehicle: Klucel (hydroxypropylcellulose) (HPC)
  T/C: 112 % of control
endpoint: mean survival time, dose: 10.0 mg/kg/injection, schedule: Q01DX009 (ip), vehicle: Klucel (hydroxypropylcellulose) (HPC)
  T/C: 113 % of control
endpoint: mean survival time, dose: 20.0 mg/kg/injection, schedule: Q01DX009 (ip), vehicle: Klucel (hydroxypropylcellulose) (HPC)
  T/C: 117 % of control
endpoint: mean survival time, dose: 80.0 mg/kg/injection, schedule: Q01DX009 (ip), vehicle: Klucel (hydroxypropylcellulose) (HPC)
  T/C: 113 % of control
endpoint: mean survival time, dose: 108.0 mg/kg/injection, schedule: Q01DX009 (ip), vehicle: Klucel (hydroxypropylcellulose) (HPC)
  T/C: 93 % of control

## COc1cc(Cl)ccc1NC(=O)OCCOc1cc(OC)c(Cl)c(OC)c1
[12]
  T/C: 101 % of control
[7]
  T/C: 103 % of control
[8]
  T/C: 101 % of control

## CC1(C(N)=O)OC12CCCCC2 (configuration not stated)
[1]
  T/C: 95 % of control
[2]
  T/C: 97 % of control
[3]
  T/C: 97 % of control

## COc1cccc2c1C(=O)c1c(O)c3c(c(O)c1C2=O)C[C@@](O)(C(C)=O)C[C@@H]3OC1CC(N(Cc2ccccc2)Cc2ccccc2)C(O)C(C)O1 (some centres not stated)
endpoint: mean survival time, dose: 1.5 mg/kg/injection, schedule: Q01DX009 (ip), vehicle: saline with Tween-80
  T/C: 105 % of control
endpoint: mean survival time, dose: 3.0 mg/kg/injection, schedule: Q01DX009 (ip), vehicle: saline with Tween-80
  T/C: 111 % of control
endpoint: mean survival time, dose: 6.0 mg/kg/injection, schedule: Q01DX009 (ip), vehicle: saline with Tween-80
  T/C: 117 % of control
endpoint: mean survival time, dose: 12.0 mg/kg/injection, schedule: Q01DX009 (ip), vehicle: saline with Tween-80
  T/C: 150 % of control
endpoint: mean survival time, dose: 24.0 mg/kg/injection, schedule: Q01DX009 (ip), vehicle: saline with Tween-80
  T/C: 115 % of control
endpoint: mean survival time, dose: 48.0 mg/kg/injection, schedule: Q01DX009 (ip), vehicle: saline with Tween-80
  T/C: 94 % of control
